For 30 molecules, IC50 results are on record in US8080566B1, “Carbazole inhibitors of histamine receptors for the treatment of disease” (Kalypsys, Inc, priority 2008, dated 2011).

pIC50: −log10 of the molar value. A value given as a limit tells only on which side of the number the result lay.

Assay [1] has as its target human histamine receptor type 1 (Homo sapiens, UniProt P35367). The assay can be described thus: In vitro histamine receptor cell-based assay, H1R antagonist (aequorin bioluminescence). The settings on record: CHO-K1 cells expressing human H1 receptor and aequorin; histamine at EC80. The text has this:
(§1) In Vitro Histamine Receptor Cell-Based Assays
(§2) The assays are based on an aequorin dependent bioluminescence signal, generated by receptor signaling through Gq/11 or a similarly acting G protein and a resulting transient calcium flux. Doubly-transfected, stable CHO-K1 cell lines expressing human histamine receptor type 1 or type 4, mitochondrion-targeted aequorin, and (histamine type 4 receptor only) human G protein Gα16 are obtained from Perkin-Elmer (Histamine H1 cell line, catalog ES-390-A; Histamine H4 cell line, catalog ES-393-A). Cells are maintained on conventional culture plasticware in F12 (Ham's) growth medium containing 10% (vol./vol.) fetal bovine serum, penicillin (100 IU/ml), streptomycin (0.1 mg/ml), zeocin (0.25 mg/ml) and geneticin (0.40 mg/ml), as per the manufacturer's instructions (all components from Invitrogen, Inc.). One day prior to assay, the growth medium is replaced with the same, excluding zeocin and geneticin.
(§3) To prepare cells for a histamine receptor assay, growth medium is aspirated, and the cells are rinsed with calcium-free, magnesium-free phosphate-buffered saline. The rinse is aspirated and replaced with Versene (Invitrogen, Inc.) and the cells incubated for two to three minutes at 37° C., followed by tapping the plate to fully dislodge cells. Assay medium (DMEM:F12 [50:50], phenol-red free, containing 1 mg/ml protease-free bovine serum albumin) is added to collect the cells, which are then transferred to a conical tube for centrifugation. The cell pellet is re-suspended in assay medium, and the cell density is determined by counting with a hemacytometer. The cells are then centrifuged again and re-suspended in assay medium to a final density of 5×10^6 cells/ml. Coelenterazine-h dye (500 μM in ethanol) is then added to a final concentration of 5 μM, and mixed immediately. The conical tube containing the cells is then wrapped with foil to protect the light sensitive dye. The cells are incubated for four hours further at normal room temperature (approximately 21° C.) with vertical rotation to keep them in suspension.
(§4) Just before assay, the dye-loaded cells are diluted to 0.75×10^6 cells/ml (H1 receptor) or 1.5×10^6 cells/ml (H4 receptor) with additional assay medium. Cells are dispensed to 1536 well microtiter plates at 3 μl/well. To assay receptor antagonist activity, […] of 100× concentration test compounds in dimethyl sulfoxide (DMSO) are dispensed to the wells, one compound per well, by passive pin transfer, and the plates are incubated for 15 minutes at room temperature. Assay plates are then transferred to a Lumilux (Perkin-Elmer) bioluminescence plate reader equipped with an automated 1536 well disposable tip pipette. The pipette then dispenses 3 μl/well of agonist (histamine, at twice the final concentration, where final concentration is a previously determined EC80 for response), with concurrent bioluminescence detection.
(§5) CCD imaging capture on the Lumilux instrument includes a 5 second baseline read prior to agonist addition, generally with a 40 second complete read per plate. A decrease in bioluminescence signal (measured either as area-under-the-curve, or maximum signal amplitude minus minimum signal amplitude) correlates with receptor antagonism. Negative control activity is measured with DMSO lacking any test compound. For receptor antagonist assays, positive control activity is measured with diphenhydramine (2-Diphenylmethoxy-N,N-dimethylethylamine, 10 μM final concentration, H1 receptor) or JNJ7777120 (1-[(5-Chloro-1H-indol-2-yl)carbonyl]-4-methyl-piperazine, 10 μM final concentration, H4 receptor). For receptor agonist assays, positive activity is measured with histamine (10 μM final concentration). Efficacy is measured as a percentage of positive control activity.

For assay [2], the target named is human histamine receptor type 4 (Homo sapiens, UniProt Q9H3N8). As to the kind of experiment: In vitro histamine receptor cell-based assay, H4R antagonist (aequorin bioluminescence). As to conditions: CHO-K1 cells expressing human H4 receptor, aequorin and Gα16; histamine at EC80.
human histamine receptor type 4, sequence (Q9H3N8 whole entry): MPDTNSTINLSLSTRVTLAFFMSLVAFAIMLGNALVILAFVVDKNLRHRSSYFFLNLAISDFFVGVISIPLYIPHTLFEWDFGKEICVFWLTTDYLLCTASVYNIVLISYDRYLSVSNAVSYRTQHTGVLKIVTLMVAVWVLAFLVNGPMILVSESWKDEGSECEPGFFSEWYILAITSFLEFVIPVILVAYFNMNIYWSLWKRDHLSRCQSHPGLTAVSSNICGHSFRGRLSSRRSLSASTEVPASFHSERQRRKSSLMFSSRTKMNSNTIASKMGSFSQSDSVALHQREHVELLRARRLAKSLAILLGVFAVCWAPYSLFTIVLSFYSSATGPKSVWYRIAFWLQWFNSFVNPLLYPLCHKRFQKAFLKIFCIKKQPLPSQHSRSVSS
Description: as §1, §2, §3, §4, §5

human histamine receptor type 1, sequence (P35367 whole entry): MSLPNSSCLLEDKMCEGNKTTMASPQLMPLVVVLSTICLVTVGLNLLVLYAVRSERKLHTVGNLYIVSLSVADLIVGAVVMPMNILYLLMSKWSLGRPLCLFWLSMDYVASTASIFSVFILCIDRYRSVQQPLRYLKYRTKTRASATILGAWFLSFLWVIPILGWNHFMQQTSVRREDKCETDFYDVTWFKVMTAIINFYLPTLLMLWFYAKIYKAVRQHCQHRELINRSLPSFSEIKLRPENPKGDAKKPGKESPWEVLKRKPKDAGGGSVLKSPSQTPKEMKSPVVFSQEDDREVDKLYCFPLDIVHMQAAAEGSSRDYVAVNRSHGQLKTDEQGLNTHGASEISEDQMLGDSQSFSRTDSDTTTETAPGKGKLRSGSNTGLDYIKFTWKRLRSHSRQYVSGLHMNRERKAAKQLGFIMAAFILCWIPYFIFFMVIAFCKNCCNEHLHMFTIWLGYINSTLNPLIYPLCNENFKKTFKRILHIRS

As usually defined, the pIC50 is the negative decadic logarithm of the IC50, by convention in mol/L. For the molecule `CCn1c2ccccc2c2cc(CN3CCCC(c4ccn[nH]4)C3)ccc21` (stereo not drawn) [Example 1, 3-((3-(1H-pyrazol-5-yl)piperidin-1-yl)methyl)-9-ethyl-9H-carbazole], the negative logarithm of the IC50 (pIC50) in assay [1] was 6.27; in assay [2], 5.97.

As for `CCn1c2ccccc2c2cc(CN3CCOCC3)ccc21` [Example 2, 4-((9-Ethyl-9H-carbazol-3-yl)methyl)morpholine], the values for the pIC50 in assay [1] and in assay [2] were 4.95 and 5.65, respectively.

For `CCn1c2ccccc2c2cc(CN3CCC(O)CC3)ccc21` [Example 3, 1-((9-Ethyl-9H-carbazol-3-yl)methyl)piperidin-4-ol], the negative logarithm of the IC50 (pIC50) in assay [1] and in assay [2] was 5.51 in each case.

On to `CCn1c2ccccc2c2cc(CN3CC(C)CC(C)C3)ccc21` (stereo not drawn) [Example 4, 3-((3,5-Dimethylpiperidin-1-yl)methyl)-9-ethyl-9H-carbazole], for which the pIC50 in assay [1] was 4.74; in assay [2] it was 5.02.

Regarding `CCn1c2ccccc2c2cc(CN3CCC(C)CC3)ccc21` [Example 5, 9-Ethyl-3-((4-methylpiperidin-1-yl)methyl)-9H-carbazole], the pIC50 was 5.23 in assay [1] and 5.09 in assay [2].

`CCn1c2ccccc2c2cc(CN3CCCC(C)C3)ccc21` (stereo not drawn) [Example 6, 9-Ethyl-3-((3-methylpiperidin-1-yl)methyl)-9H-carbazole]: the negative logarithm of the IC50 (pIC50) was 5.22 in assay [1] and 5.36 in assay [2].

Turning to `CCOC(=O)C1CCCN(Cc2ccc3c(c2)c2ccccc2n3CC)C1` (stereo not drawn) [Example 7, Ethyl 1-((9-ethyl-9H-carbazol-3-yl)methyl)piperidine-3-carboxylate], the negative-log IC50 (pIC50) in assay [1] is 5.25; in assay [2] it was 5.42.

In the case of `CCn1c2ccccc2c2cc(CN3CCCC3)ccc21` [Example 8, 9-Ethyl-3-(pyrrolidin-1-ylmethyl)-9H-carbazole], the results for the pIC50 in assay [1] and in assay [2] were 5.12 and 5.07, respectively.

For the molecule `CCn1c2ccccc2c2cc(CN3CCNCC3)ccc21` [Example 9, 9-Ethyl-3-(piperazin-1-ylmethyl)-9H-carbazole], the values for the pIC50 in assay [1] and in assay [2] were 4.33 and 4.90, respectively.

Turning to `CCn1c2ccccc2c2cc(CN3CCCC(C(N)=O)C3)ccc21` (stereo not drawn) [Example 10, 1-((9-Ethyl-9H-carbazol-3-yl)methyl)piperidine-3-carboxamide], the pIC50 was 6.17 in assay [1] and 6.74 in assay [2].

`CCn1c2ccccc2c2cc(CN3CCCC(C(=O)O)C3)ccc21` (stereo not drawn) [Example 11, 1-((9-Ethyl-9H-carbazol-3-yl)methyl)piperidine-3-carboxylic acid]: the pIC50 in assay [1] is 5.00; in assay [2], 5.21.

On to `CCn1c2ccccc2c2cc(CN3CCCC(CO)C3)ccc21` (stereo not drawn) [Example 12, (1-((9-Ethyl-9H-carbazol-3-yl)methyl)piperidin-3-yl)methanol], for which the figures for the pIC50 in assay [1] and in assay [2] were 5.50 and 5.84, respectively.

Take `CCn1c2ccccc2c2cc(CN3CCCC(C#N)C3)ccc21` (stereo not drawn) [Example 13, 1-((9-Ethyl-9H-carbazol-3-yl)methyl)piperidine-3-carbonitrile]: the results for the pIC50 in assay [1] and in assay [2] were 5.59 and 5.99, respectively.

Consider `CCn1c2ccccc2c2cc(CN3CCCC(c4nnn[nH]4)C3)ccc21` (stereo not drawn) [Example 14, 3-((3-(1H-tetrazol-5-yl)piperidin-1-yl)methyl)-9-ethyl-9H-carbazole], for which the pIC50 was 6.16 in assay [1] and 6.48 in assay [2].

Turning to `c1ccc2c(c1)[nH]c1ccc(CN3CCCC(c4ccn[nH]4)C3)cc12` (stereo not drawn) [Example 15, 3-((3-(1H-pyrazol-5-yl)piperidin-1-yl)methyl)-9H-carbazole], the pIC50 is 4.42 in assay [1] and 4.28 in assay [2].

Regarding `CCn1c2ccccc2c2cc(CN3CCCC(C(=O)NC)C3)ccc21` (stereo not drawn) [Example 16, 1-((9-ethyl-9H-carbazol-3-yl)methyl)-N-methylpiperidine-3-carboxamide], the negative logarithm of the IC50 (pIC50) in assay [1] is 6.02; in assay [2], 6.47.

For the molecule `CCn1c2ccccc2c2cc(CN3CCCC(c4ncc[nH]4)C3)ccc21` (stereo not drawn) [Example 17, 3-((3-(1H-imidazol-2-yl)piperidin-1-yl)methyl)-9-ethyl-9H-carbazole], the values for the pIC50 in assay [1] and in assay [2] were 6.28 and 5.64, respectively.

Consider `CCn1c2ccccc2c2cc(CN3CCCC(n4ccnn4)C3)ccc21` (stereo not drawn) [Example 18, 3-((3-(1H-1,2,3-triazol-1-yl)piperidin-1-yl)methyl)-9-ethyl-9H-carbazole], for which the values for the negative-log IC50 (pIC50) in assay [1] and in assay [2] were 5.76 and 5.64, respectively.

On to `CCn1c2ccccc2c2cc(CN3CCCC(c4nnc[nH]4)C3)ccc21` (stereo not drawn) [Example 19, 3-((3-(4H-1,2,4-Triazol-3-yl)piperidin-1-yl)methyl)-9-ethyl-9H-carbazole], for which the negative logarithm of the IC50 (pIC50) in assay [1] is 6.23; in assay [2] it was 6.00.

Regarding `CCn1c2ccccc2c2cc(CN3CCCC(C(=O)N(C)C)C3)ccc21` (stereo not drawn) [Example 20, 1-((9-ethyl-9H-carbazol-3-yl)methyl)-N,N-dimethylpiperidine-3-carboxamide], the negative logarithm of the IC50 (pIC50) was 5.47 in assay [1] and 5.96 in assay [2].

For the molecule `CCn1c2ccccc2c2cc(CN3CCCC(c4cnc[nH]4)C3)ccc21` (stereo not drawn) [Example 21, 3-((3-(1H-Imidazol-5-yl)piperidin-1-yl)methyl)-9-ethyl-9H-carbazolee], the values for the pIC50 in assay [1] and in assay [2] were 5.87 and 5.56, respectively.

With `CCn1c2c(c3cc(CN4CCCC(c5ccn[nH]5)C4)ccc31)CCCC2` (stereo not drawn) [Example 22, 6-((3-(1H-pyrazol-5-yl)piperidin-1-yl)methyl)-9-ethyl-2,3,4,9-tetrahydro-1H-carbazole], the pIC50 in assay [1] was 5.06; in assay [2] it was 5.23.

Take `CCn1c2ccccc2c2cc(CN3CCCC(c4cnn[nH]4)C3)ccc21` (stereo not drawn) [Example 23, 3-((3-(1H-1,2,3-triazol-5-yl)piperidin-1-yl)methyl)-9-ethyl-9H-carbazole]: the results for the pIC50 in assay [1] and in assay [2] were 7.05 and 6.02, respectively.

Consider `CCn1c2ccccc2c2cc(CN3CCCC(c4cn[nH]c4)C3)ccc21` (stereo not drawn) [Example 24, 3-((3-(1H-pyrazol-4-yl)piperidin-1-yl)methyl)-9-ethyl-9H-carbazole], for which the negative logarithm of the IC50 (pIC50) is 6.24 in assay [1] and 5.36 in assay [2].

Consider `CCn1c2ccccc2c2cc(CN3CCN(C)CC3)ccc21` [Example 25, 9-ethyl-3-((4-methylpiperazin-1-yl)methyl)-9H-carbazole], for which the pIC50 is 5.59 in assay [1] and 6.18 in assay [2].

On to `CN(C)CCCn1c2ccccc2c2cc(CN3CCCC(c4ccn[nH]4)C3)ccc21` (stereo not drawn) [Example 26, 3-(3-((3-(1H-pyrazol-5-yl)piperidin-1-yl)methyl)-9H-carbazol-9-yl)-N,N-dimethylpropan-1-amine], for which the negative logarithm of the IC50 (pIC50) is 4.68 in assay [1] and 4.70 in assay [2].

On to `CN(C)CCCn1c2ccccc2c2cc(CN3CCCC(C(N)=O)C3)ccc21` (stereo not drawn) [Example 27, 1-((9-(3-(dimethylamino)propyl)-9H-carbazol-3-yl)methyl)piperidine-3-carboxamide], for which the pIC50 in assay [1] and in assay [2] was below 4.52 throughout.

Regarding `CN(C)CCCn1c2ccccc2c2cc(CN3CCCC(N)C3)ccc21` (stereo not drawn) [Example 28, 1-((9-(3-(dimethylamino)propyl)-9H-carbazol-3-yl)methyl)piperidin-3-amine], the pIC50 in assay [1] is below 4.52; in assay [2], 4.25.

Turning to `CCn1c2ccccc2c2ccc(CN3CCCC(c4ccn[nH]4)C3)cc21` (stereo not drawn) [Example 29, 2-((3-(1H-pyrazol-5-yl)piperidin-1-yl)methyl)-9-ethyl-9H-carbazole], the negative logarithm of the IC50 (pIC50) in assay [1] was 5.17; in assay [2] it was 4.49.

Take `CCn1c2ccccc2c2cccc(CN3CCCC(c4ccn[nH]4)C3)c21` (stereo not drawn) [Example 30, 1-((3-(1H-pyrazol-5-yl)piperidin-1-yl)methyl)-9-ethyl-9H-carbazole]: the figures for the pIC50 in assay [1] and in assay [2] were below 4.00 and 4.43, respectively.
